{
  "source": "patent US20230357708A1",
  "about": "“BI[…] PARA-HYDROXYBENZOIC ACID FROM METHANOL AND METHANE” (The Board of Trustees of the Leland Stanford Junior …, priority 2020, published 2023)",
  "key": {"[1]": {"test_system": "M. buryatense 5GB1 (5G) strain", "assay": "4HBA toxicity test, streaks on plates with horizontal 4HBA-gradient", "assay_type": "cell-based, Methylotuvimicrobium buryatense", "conditions": "background-strain streaks, 4HBA-gradient 0-10 mM, pH 8.9", "experimental": "(§1) Fast growers were mutants with changed 4HBA-operon sequence. Fast-growing mutant #1 produced some 4HBA. […] The toxic conditions in turn favoured re-arrangement and/or point mutations of the plasmid. Streaks of the transconjugants on solid medium without methanol, grew comparatively well The solid medium was supplemented with nutrient broth, NMS2.1kan and MeOH. Toxicity tests with varying 4HBA concentrations was performed."}, "[2]": {"test_system": "M. alcahphilum 20Z strain", "assay": "4HBA toxicity test, streaks on plates with horizontal 4HBA-gradient", "assay_type": "cell-based, Methylomicrobium alcaliphilum", "conditions": "background-strain streaks, 4HBA-gradient 0-10 mM, pH 8.9", "experimental": "as §1"}},
  "data": [
    {"compound": "O=C(O)c1ccc(O)cc1", "note": "[4HBA, para-hydroxybenzoic acid]", "values": [
      {"measurement": "effect of 4HBA on growth", "setting": "[1]", "value": "significant inhibitory effect"},
      {"measurement": "effect of 4HBA on growth compared with the M. alcahphilum 20Z strain", "setting": "[1]", "value": "more severely affected"},
      {"measurement": "effect of 4HBA on growth", "setting": "[2]", "value": "significant inhibitory effect"}
    ]}
  ]
}
